Consider 33 compounds from patent US8716289B2, “Carbamate derivatives of alkyl-heterocycles, preparation thereof and therapeutic use thereof” (Sanofi, priority 2008, dated 2014).

The structures appear in SMILES notation.

With `CC(C)CC(OC(=O)NCCC1CCN(c2ccc3cc(Cl)ccc3n2)CC1)c1ccoc1` (racemic), the melting point was 97 to 99 °C.

In the case of `CC(C)CC(OC(=O)NCCC1CCN(c2cccc(-c3ccc(F)cc3)n2)CC1)c1ccoc1` (racemic), the melting point is 101 to 103 °C. The figure for `CN(C)C1(CCNC(=O)OC(c2nccn2C)C(F)(F)F)CN(c2nnc(Cl)c3ccccc23)C1` (racemic) [Compound 63, 2,2,2-trifluoro-1-(1-methyl-1H-imidazol-2-yl)ethyl {2-[1-(4-chlorophthalazin-1-yl)-3-dimethylaminoazetidin-3-yl]ethyl}-carbamate] is 168 to 170 °C; for `Cn1ccnc1C(OC(=O)NCCC1CCN(c2ccc3cc(Cl)ccc3n2)CC1)C(F)(F)F` (racemic) [Compound 73, 2,2,2-trifluoro-1-(1-methyl-1H-imidazol-2-yl)ethyl {2-[1-(6-chloroquinolin-2-yl)piperidin-4-yl]ethyl}carbamate] it is 196 to 198 °C.

The compound `NC(=O)c1cc(COC(=O)NC2CCCN(c3nccc(C(F)(F)F)n3)CC2)on1` (racemic) [Compound 74, 3-carbamoylisoxazol-5-ylmethyl (±)[1-(4-trifluoromethylpyrimidin-2-yl)azepan-4-yl]carbamate] displayed a melting point of 171 to 173 °C. `CNC(=O)c1cc(COC(=O)NCC2CCN(c3nnc(Cl)c4ccccc34)C2)on1` (racemic) [Compound 79, 3-methylcarbamoylisoxazol-5-ylmethyl (±)[1-(4-chlorophthalazin-1-yl)pyrrolidin-3-ylmethyl]carbamate] gave a melting point of 159 to 161 °C. The figure for `O=C(NCCC1CCN(c2ccc3cc(Cl)ccc3n2)CC1)OCc1cc(-c2ccc(Cl)cc2)no1` [Compound 3, 3-(4-chlorophenyl)isoxazol-5-ylmethyl 2-[1-(6-chloroquinolin-2-yl)piperidin-4-yl]ethylcarbamate] is 139 to 140 °C. Compound `O=C(NCCC1CCN(c2ccc3cc(Cl)ccc3n2)CC1)OCc1nc(-c2ccc(Cl)cc2)no1` [Compound 4, 3-(4-chlorophenyl)[1,2,4]oxadiazol-5-ylmethyl 2-[1-(6-chloroquinolin-2-yl)piperidin-4-yl]ethylcarbamate] came in with a melting point of 134 to 136 °C. The figure for `Cc1onc(-c2ccccc2)c1COC(=O)NCCC1CCN(c2ccc3cc(Cl)ccc3n2)CC1` [Compound 6, 5-methyl-3-phenylisoxazol-4-ylmethyl 2-[1-(6-chloroquinolin-2-yl)piperidin-4-yl]ethylcarbamate] is 110 to 112 °C.

In the case of `CC(C)c1noc(COC(=O)NCCC2CCN(c3ccc(-c4ccc(F)cc4)cn3)CC2)n1` [Compound 7, 3-isopropyl[1,2,4]oxadiazol-5-ylmethyl 2-[5′-(4-fluorophenyl)-3,4,5,6-tetrahydro-2H-[1,2′]bipyridinyl-4-yl]-ethylcarbamate], the melting point fell in the range of 96 to 98 °C. As for `Cn1ccc(COC(=O)NCCC2CCN(c3ccc(-c4ccc(F)cc4)cn3)CC2)n1` [Compound 8, 1-methyl-1H-pyrazol-3-ylmethyl 2-[5′-(4-fluorophenyl)-3,4,5,6-tetrahydro-2H-[1,2′]bipyridinyl-4-yl]ethylcarbamate], the melting point was 154 to 156 °C. The figure for `CC(C)(C)c1nnc(COC(=O)NCCC2CCN(c3ccc(-c4ccc(F)cc4)cn3)CC2)s1` [Compound 10, 5-tert-butyl[1,3,4]thiadiazol-2-ylmethyl 2-[5′-(4-fluorophenyl)-3,4,5,6-tetrahydro-2H-[1,2′]bipyridinyl-4-yl]-ethylcarbamate] is 139 to 140 °C.

In the case of `CC(C)c1nc(COC(=O)NCCC2CCN(c3ccc(-c4ccc(F)cc4)cn3)CC2)no1` [Compound 11, 5-isopropyl[1,2,4]oxadiazol-3-ylmethyl 2-[5′-(4-fluorophenyl)-3,4,5,6-tetrahydro-2H-[1,2′]bipyridinyl-4-yl]-ethylcarbamate], the melting point fell in the range of 112 to 113 °C. With `O=C(NCCC1CCN(c2ccc3cc(Cl)ccc3n2)CC1)OCc1nnc(-c2ccc(Cl)cc2)o1` [Compound 13, 5-(4-chlorophenyl)[1,3,4]oxadiazol-2-ylmethyl 2-[1-(6-chloroquinolin-2-yl)piperidin-4-yl]ethylcarbamate] the figure was 152 to 153 °C; with `COc1ccc(-c2nnc(COC(=O)NCCC3CCN(c4ccc5cc(Cl)ccc5n4)CC3)o2)cc1` [Compound 14, 5-(4-methoxyphenyl)[1,3,4]oxadiazol-2-ylmethyl 2-[1-(6-chloroquinolin-2-yl)piperidin-4-yl]ethylcarbamate], 154 to 156 °C; with `O=C(NCCC1CCN(c2ccc3cc(Cl)ccc3n2)CC1)OCc1nc(-c2ccc(F)cc2)no1` [Compound 15, 3-(4-fluorophenyl)[1,2,4]oxadiazol-5-ylmethyl 2-[1-(6-chloroquinolin-2-yl)piperidin-4-yl]ethylcarbamate], 160 to 162 °C. With `O=C(NCCC1CCN(c2ccc3cc(Cl)ccc3n2)CC1)OCc1nc(-c2cccc(F)c2)no1` [Compound 16, 3-(3-fluorophenyl)[1,2,4]oxadiazol-5-ylmethyl 2-[1-(6-chloroquinolin-2-yl)piperidin-4-yl]ethylcarbamate] the figure was 134 to 136 °C; with `O=C(NCCC1CCN(c2ccc3cc(Cl)ccc3n2)CC1)OCc1nsc(-c2ccc(Cl)cc2)n1` [Compound 17, 5-(4-chlorophenyl)[1,2,4]thiadiazol-3-ylmethyl 2-[1-(6-chloroquinolin-2-yl)piperidin-4-yl]ethylcarbamate], 191 to 193 °C. The figure for `O=C(NCCC1CCN(c2ccc3cc(Cl)ccc3n2)CC1)OCc1csnn1` [Compound 18, [1,2,3]thiadiazol-4-ylmethyl 2-[1-(6-chloroquinolin-2-yl)piperidin-4-yl]ethylcarbamate] is 146 to 148 °C. Regarding `CNC(=O)c1cc(COC(=O)NCCC2CCN(c3ccc4cc(Cl)ccc4n3)CC2)on1` [Compound 20, 3-methylcarbamoylisoxazol-5-ylmethyl 2-[1-(6-chloroquinolin-2-yl)piperidin-4-yl]ethylcarbamate], the melting point lay within 200 to 202 °C.

`NC(=O)c1coc(COC(=O)NCCC2CCN(c3ccc(-c4ccc(F)cc4)cn3)CC2)n1` [Compound 21, 4-carbamoyloxazol-2-ylmethyl 2-[5′-(4-fluorophenyl)-3,4,5,6-tetrahydro-2H-[1,2′]bipyridinyl-4-yl]ethylcarbamate] came in with a melting point of 206 to 208 °C. The figure for `CNC(=O)c1cc(COC(=O)NCCC2CCN(c3cccc(-c4ccc(F)cc4)n3)CC2)on1` [Compound 22, 3-methylcarbamoylisoxazol-5-ylmethyl 2-[6′-(4-fluoro-phenyl)-3,4,5,6-tetrahydro-2H-[1,2′]bipyridinyl-4-yl]-ethylcarbamate] is 155.5 to 157.5 °C. The figure for `NC(=O)c1cc(COC(=O)NCCC2CCN(c3ccc4cc(F)ccc4n3)CC2)on1` [Compound 23, 3-carbamoylisoxazol-5-ylmethyl 2-[1-(6-fluoroquinolin-2-yl)piperidin-4-yl]ethylcarbamate] is 200 to 202 °C; for `NC(=O)c1cc(COC(=O)NCCC2CCN(c3cccc(-c4ccc(F)cc4)n3)CC2)on1` [Compound 24, 3-carbamoylisoxazol-5-ylmethyl 2-[6′-(4-fluorophenyl)-3,4,5,6-tetrahydro-2H-[1,2′]bipyridinyl-4-yl]ethylcarbamate] it is 172 to 174 °C. The figure for `CNC(=O)c1cc(COC(=O)NCCC2CCN(c3ccc4cc(F)ccc4n3)CC2)on1` [Compound 25, 3-methylcarbamoylisoxazol-5-ylmethyl 2-[1-(6-fluoroquinolin-2-yl)piperidin-4-yl]ethylcarbamate] is 180 to 182 °C; for `CNC(=O)c1cc(COC(=O)NCCC2CCN(c3ccc(-c4ccc(F)cc4)cn3)CC2)on1` [Compound 26, 3-methylcarbamoylisoxazol-5-ylmethyl 2-[5′-(4-fluorophenyl)-3,4,5,6-tetrahydro-2H-[1,2′]bipyridinyl-4-yl]-ethylcarbamate] it is 191 to 193 °C; for `CN(C)C(=O)c1cc(COC(=O)NCCC2CCN(c3cccc(-c4ccc(F)cc4)n3)CC2)on1` [Compound 27, 3-dimethylcarbamoylisoxazol-5-ylmethyl 2-[6′-(4-fluorophenyl)-3,4,5,6-tetrahydro-2H-[1,2′]bipyridinyl-4-yl]-ethylcarbamate] it is 81 to 83 °C. `NC(=O)c1cc(COC(=O)NCCC2CCN(c3ccc(-c4cccc(F)c4)cn3)CC2)on1` [Compound 28, 3-carbamoylisoxazol-5-ylmethyl 2-[5′-(3-fluorophenyl)-3,4,5,6-tetrahydro-2H-[1,2′]bipyridinyl-4-yl]ethylcarbamate] returned a melting point of 172 to 176 °C. Turning to `CN(C)C(=O)c1cc(COC(=O)NCCC2CCN(c3ccc(-c4ccc(F)cc4)cn3)CC2)on1` [Compound 30, 3-dimethylcarbamoylisoxazol-5-ylmethyl 2-[5′-(4-fluorophenyl)-3,4,5,6-tetrahydro-2H-[1,2′]bipyridinyl-4-yl]-ethylcarbamate], the melting point was 149 to 151 °C. The figure for `CN(C)C(=O)c1cc(COC(=O)NCCC2CCN(c3ccc4cc(Cl)ccc4n3)CC2)on1` [Compound 31, 3-dimethylcarbamoylisoxazol-5-ylmethyl 2-[1-(6-chloroquinolin-2-yl)piperidin-4-yl]ethylcarbamate] is 114 to 116 °C; for `CNC(=O)c1cc(COC(=O)NCCC2CCN(c3cncc(-c4ccc(F)cc4)n3)CC2)on1` [Compound 32, 3-methylcarbamoylisoxazol-5-ylmethyl 2-{1-[6-(4-fluorophenyl)pyrazin-2-yl]piperidin-4-yl}ethylcarbamate] it is 150 to 152 °C. The compound `CCOC(=O)c1cc(COC(=O)NCC2(F)CCN(c3nccc(C(F)(F)F)n3)CC2)on1` [Compound 51, ethyl 5-[4-fluoro-1-(4-trifluoromethylpyrimidin-2-yl)-piperidin-4-ylmethylcarbamoyloxymethyl]isoxazole-3-carboxylate] had a melting point of 136 to 138 °C. The compound `O=C(NCCC1CCN(c2ccc3cc(Cl)ccc3n2)CC1)OCc1cc(C(=O)O)no1` [Compound 53, 5-{2-[1-(6-chloroquinolin-2-yl)piperidin-4-yl]ethylcarbamoyloxymethyl}isoxazole-3-carboxylic acid] yielded a melting point of 180 to 182 °C.
